These results are taken from patent US10752587B2, “Homobispiperidinyl derivatives as liver X receptor beta agonists, compositions and their use” (Merck Sharp & Dohme Corp., priority 2015, dated 2020).

Assay [1] concerns the target T1, glutathione-S-transferase (GST) tagged LXRalpha LBD (ligand binding domain) (Homo sapiens, UniProt Q13133).
T1 construct: purchased Invitrogen pv4655
T1 sequence (Q13133 209-447 limits assumed): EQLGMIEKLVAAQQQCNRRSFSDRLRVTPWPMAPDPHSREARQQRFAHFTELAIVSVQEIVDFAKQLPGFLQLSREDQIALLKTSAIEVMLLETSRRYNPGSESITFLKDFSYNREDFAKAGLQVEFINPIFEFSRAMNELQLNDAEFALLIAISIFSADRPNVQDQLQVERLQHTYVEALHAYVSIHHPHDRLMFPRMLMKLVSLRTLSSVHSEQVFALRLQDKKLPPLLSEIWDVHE
Put plainly: LanthaScreen TR-FRET Liver X Receptor Coactivator Assay, co-activator recruitment to LXRalpha LBD. The class given is biochemical. Particulars: for Emax: efficacy at max dose, in relation to reference dual agonist T0901317, read-out: LXR alpha Activity @ max dose (%); for LXR alpha IP (nM) / EC50: potency (Inflection Point, IP), co-activator recruitment to LXRalpha LBD, in relation to T0901317; for EC50: read-out: LXR alpha IP. In outline: (§1)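 TR-FRET coactivator recruitment; compound + LBD, then fluorescein-coactivator peptide/Tb-anti-GST Ab mix; RT incubation; IP and Emax vs T0901317.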

In assay [2] the target is T2, glutathione-S-transferase (GST) tagged LXRbeta LBD (ligand binding domain) (Homo sapiens, UniProt P55055).
T2 construct: purchased Invitrogen pv4658.pps
T2 sequence (P55055 222-460 limits assumed): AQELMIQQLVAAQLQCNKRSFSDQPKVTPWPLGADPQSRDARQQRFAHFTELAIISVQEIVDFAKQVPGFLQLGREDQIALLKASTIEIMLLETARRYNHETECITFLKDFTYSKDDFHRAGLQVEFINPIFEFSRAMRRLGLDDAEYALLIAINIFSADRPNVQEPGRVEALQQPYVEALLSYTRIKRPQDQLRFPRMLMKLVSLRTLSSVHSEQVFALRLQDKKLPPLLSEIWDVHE
Put plainly: LanthaScreen TR-FRET Liver X Receptor Coactivator Assay, co-activator recruitment to LXRbeta LBD. Particulars: for Emax: efficacy at max dose, in relation to reference dual agonist T0901317, read-out: LXR beta Activity @ max dose (%); for EC50: potency (Inflection Point, IP), co-activator recruitment to LXRbeta LBD, in relation to T0901317, read-out: LXR beta IP. It counts as biochemical. The essentials: as §1

For the molecule `COc1cccc([C@@](O)(C(=O)N2CCC(CC3CN(c4ccc(C(=O)N(C)C)c(C5CC5)n4)C3)CC2)C(F)(F)F)c1` [Example 7-15, 2-cyclopropyl-N,N-dimethyl-6-[3-({1-[(2R)-3,3,3-trifluoro-2-hydroxy-2-(3-methoxyphenyl)propanoyl]piperidin-4-yl}methyl)azetidin-1-yl]pyridine-3-carboxamide], in assay [1], the Emax amounted to 0% and the “LXR alpha IP (nM)” value is “NO IP”. In assay [2], the Emax was determined as 91% and the EC50 turned out to be 1430 nM.

`COc1cccc([C@@](O)(C(=O)N2CCC(CC3(C)CCN(c4ccc(C(=O)N(C)C)c(C)n4)CC3)CC2)C(F)(F)F)c1` [Example 7-16, N,N,2-trimethyl-6-[4-methyl-4-({1-[(2R)-3,3,3-trifluoro-2-hydroxy-2-(3-methoxyphenyl)propanoyl]piperidin-4-yl}methyl)piperidin-1-yl]pyridine-3-carboxamide]: in assay [1], the Emax stood at 8% and the “LXR alpha IP (nM)” value is reported as “NO IP”. Further, in assay [2], the Emax is 65% and the EC50 is 66 nM.

In the case of `CCOc1cccc([C@@](O)(C(=O)N2CCC(CC3CN(c4ccc(C(=O)N(C)C)c(C5CC5)n4)C3)CC2)C(F)(F)F)c1` [Example 7-17, 2-cyclopropyl-6-[3-({1-[(2R)-2-(3-ethoxyphenyl)-3,3,3-trifluoro-2-hydroxypropanoyl]piperidin-4-yl}methyl)azetidin-1-yl]-N,N-dimethylpyridine-3-carboxamide], in assay [1], the Emax was determined as 0% and the “LXR alpha IP (nM)” value was “NO IP”. Also, in assay [2], the Emax was 36% and the EC50 worked out at 1290 nM.

As to `COc1nc(N2CCC(CC3CCN(C(=O)[C@](O)(c4ccccc4)C(F)(F)F)CC3)CC2)ccc1C(=O)N(C)C` [Example 7-18, 2-methoxy-N,N-dimethyl-6-[4-({1-[(2R)-3,3,3-trifluoro-2-hydroxy-2-phenylpropanoyl]piperidin-4-yl}methyl)piperidin-1-yl] pyridine-3-carboxamide], the Emax in assay [1] came out at 34%; in assay [2], 80%. The values for the EC50 in assay [1] and in assay [2] were 442 nM and 6 nM, respectively.

Turning to `COc1cccc([C@@](O)(C(=O)N2CCC(CC3CCN(c4ccc(C(=O)N(C)C)c(OC)n4)CC3)CC2)C(F)(F)F)c1` [Example 7-19, 2-methoxy-N,N-dimethyl-6-[4-({1-[(2R)-3,3,3-trifluoro-2-hydroxy-2-(3-methoxyphenyl)propanoyl]piperidin-4-yl}methyl)piperidin-1-yl]pyridine-3-carboxamide], in assay [1], the Emax is 3% and the “LXR alpha IP (nM)” value is “NO IP”. Further, in assay [2], the Emax was 61% and the EC50 worked out at 7 nM.

Turning to `COc1nc(N2CCC(CC3CCN(C(=O)[C@](O)(c4cc(Cl)cc(Cl)c4)C(F)(F)F)CC3)CC2)ccc1C(=O)N(C)C` [Example 7-20, 6-[4-({1-[(2R)-2-(3,5-dichlorophenyl)-3,3,3-trifluoro-2-hydroxypropanoyl]piperidin-4-yl}methyl)piperidin-1-yl]-2-methoxy-N,N-dimethylpyridine-3-carboxamide], in assay [1], the Emax was 29% and the “LXR alpha IP (nM)” value is on record as “NO IP”. Moreover, in assay [2], the Emax was 79% and the EC50 came to 6 nM.

With `COc1cccc([C@@](O)(C(=O)N2CC(CC3CCN(c4ccc(C(=O)N(C)C)c(OC)n4)CC3)C2)C(F)(F)F)c1` [Example 7-21, 2-methoxy-N,N-dimethyl-6-[4-[{1-[(2R)-3,3,3-trifluoro-2-hydroxy-2-(3-methoxyphenyl)propanoyl]azetidin-3-yl}methyl)piperidin-1-yl]pyridine-3-carboxamide], in assay [1], the Emax was 2% and the “LXR alpha IP (nM)” value is recorded as “NO IP”. In assay [2], the Emax came out at 70% and the EC50 was determined as 169 nM.

With `CCOc1cccc([C@@](O)(C(=O)N2CCC(CC3CN(c4ccc(C(=O)N(C)C)c(OC)n4)C3)CC2)C(F)(F)F)c1` [Example 7-22, 6-[3-({1-[(2R)-2-(3-ethoxyphenyl)-3,3,3-trifluoro-2-hydroxypropanoyl]piperidin-4-yl}methyl)azetidin-1-yl]-2-methoxy-N,N-dimethylpyridine-3-carboxamide], in assay [1], the Emax is 0% and the “LXR alpha IP (nM)” value is on record as “NO IP”. Besides, in assay [2], the Emax came out at 45% and the EC50 worked out at 1270 nM.

Regarding `COc1cccc([C@@](O)(C(=O)N2CCC(CC3CN(c4ccc(C(=O)N(C)C)c(OC)n4)C3)CC2)C(F)(F)F)c1` [Example 7-23, 2-methoxy-N,N-dimethyl-6-[3-({1-[(2R)-3,3,3-trifluoro-2-hydroxy-2-(3-methoxyphenyl)propanoyl]piperidin-4-yl}methyl)azetidin-1-yl]pyridine-3-carboxamide], in assay [1], the Emax stood at 0% and the “LXR alpha IP (nM)” value is listed as “NO IP”. For the same molecule, in assay [2], the Emax is 54% and the EC50 amounted to 1230 nM.

`CCOc1cccc([C@@](O)(C(=O)N2CCC(CC3(C)CCN(c4ccc(C(=O)N(C)C)c(OC)n4)CC3)CC2)C(F)(F)F)c1` [Example 7-24]: in assay [1], the Emax was determined as 7% and the “LXR alpha IP (nM)” value is on record as “NO IP”. For the same molecule, in assay [2], the Emax was determined as 106% and the EC50 is 92 nM.

For the molecule `CNC(=O)c1ccc(N2CCC(CC3CCN(C(=O)[C@](O)(c4ccccc4)C(F)(F)F)CC3)CC2)cc1Cl` [Example 7-25, 2-chloro-N-methyl-4-[4-({1-[(2R)-3,3,3-trifluoro-2-hydroxy-2-phenylpropanoyl]piperidin-4-yl}methyl)piperidin-1-yl]benzamide], the results for the Emax in assay [1] and in assay [2] were 44% and 77%, respectively. In addition, the EC50 in assay [1] was determined as 343 nM; in assay [2], 20 nM.

As to `CNC(=O)c1ccc(N2CCC(OC3CCN(C(=O)[C@](O)(c4ccccc4)C(F)(F)F)CC3)CC2)cc1Cl` [Example 7-26, 2-chloro-N-methyl-4-[4-({1-[(2R)-3,3,3-trifluoro-2-hydroxy-2-phenylpropanoyl]piperidin-4-yl}oxy)piperidin-1-yl]benzamide], in assay [1], the Emax came out at 35% and the EC50 was determined as 2260 nM. Further, in assay [2], the Emax turned out to be 115% and the EC50 came out at 125 nM.

Consider `CNC(=O)c1ccc(N2CCC(OC3CCN(C(=O)C4(c5ccccc5F)CCCC4)CC3)CC2)cc1Cl` [Example 7-27, 2-chloro-4-{4-[(1-{[1-(2-fluorophenyl)cyclopentyl]carbonyl}piperidin-4-yl)oxy]piperidin-1-yl}-N-methylbenzamide], for which, in assay [1], the Emax is 27% and the EC50 was 4390 nM. Also, in assay [2], the Emax stood at 113% and the EC50 is 446 nM.

`CNC(=O)c1ccc(N2CCC(OC3CCN(C(=O)C(O)(c4cccc(C(F)(F)F)c4)C(F)(F)F)CC3)CC2)cc1Cl` (centres unmarked) [Example 7-28, 2-chloro-N-methyl-4-{4-[(1-{3,3,3-trifluoro-2-hydroxy-2-[3-(trifluoromethyl)phenyl]propanoyl}piperidin-4-yl)oxy]piperidin-1-yl} benzamide]: the Emax was 28% in assay [1] and 105% in assay [2]. For the same molecule, the values for the EC50 in assay [1] and in assay [2] were 2020 nM and 243 nM, respectively.

`CNC(=O)c1ccc(N2CCC(OC3CCN(C(=O)C(O)(c4cccc(C)c4)C(F)(F)F)CC3)CC2)cc1Cl` (centres unmarked) [Example 7-29, 2-chloro-N-methyl-4-[4-({1-[3,3,3-trifluoro-2-hydroxy-2-(3-methylphenyl)propanoyl]piperidin-4-yl}oxy)piperidin-1-yl]benzamide]: in assay [1], the Emax turned out to be 25% and the EC50 is 3240 nM. Also, in assay [2], the Emax was found to be 102% and the EC50 is 176 nM.

Consider `CNC(=O)c1ccc(N2CCC(OC3CCN(C(=O)C(O)(c4cccc(F)c4)C(F)(F)F)CC3)CC2)cc1Cl` (centres unmarked) [Example 7-30, 2-chloro-N-methyl-4-[4-({1-[3,3,3-trifluoro-2-(3-fluorophenyl)-2-hydroxypropanoyl]piperidin-4-yl}oxy)piperidin-1-yl] benzamide], for which the Emax turned out to be 50% in assay [1] and 120% in assay [2]. Besides, the EC50 was found to be 3790 nM in assay [1] and 91 nM in assay [2].

As to `CNC(=O)c1ccc(N2CCC(OC3CCN(C(=O)C(O)(c4cccc(Cl)c4)C(F)(F)F)CC3)CC2)cc1Cl` (centres unmarked) [Example 7-31, 2-chloro-4-[4-({1-[2-(3-chlorophenyl)-3,3,3-trifluoro-2-hydroxypropanoyl]piperidin-4-yl}oxy)piperidin-1-yl]-N-methylbenzamide], the values for the Emax in assay [1] and in assay [2] were 40% and 112%, respectively. Moreover, the EC50 in assay [1] amounted to 1580 nM; in assay [2], 52 nM.
